# Measurements: ChEMBL document CHEMBL4364315, “Synthesis and evaluation of cytotoxic and Na+/K+-ATP-ase inhibitory activity of selected 5α-oleandrigenin derivatives” (Eur J Med Chem, 2019)
# The source made the active and inactive calls. The calls are words filed in the database; no cut-off is given here.
# Columns and labels:
# [1] = test system: CCRF-CEM; assay: Antiproliferative activity against human CEM cells assessed as reduction in cell viability after 72 hrs by resazurin dye based assay; assay type: functional
# [2] = test system: MCF7; assay: Antiproliferative activity against human MCF7 cells assessed as reduction in cell viability after 72 hrs by resazurin dye based assay; assay type: functional; conditions: MCF7, 72 h
# [3] = test system: HeLa; assay: Antiproliferative activity against human HeLa cells assessed as reduction in cell viability after 72 hrs by resazurin dye based assay; assay type: functional
# [4] = test system: A2780; assay: Antiproliferative activity against human A2780 cells assessed as reduction in cell viability after 72 hrs by resazurin dye based assay; assay type: functional; conditions: A2780, 72 h
# [5] = test system: BJ; assay: Cytotoxicity against human BJ cells assessed as reduction in cell viability after 72 hrs by resazurin dye based assay
# [6] = molecular target: T1, Sodium/potassium-transporting ATPase (Sus scrofa) (UniProt P05027+P05024+D2WKD8+D2WKD7+F1ST41); assay: Inhibition of porcine kidney Na+/K+-ATPase assessed as residual activity at 50 uM preincubated for 2 mins followed by ATP addition and measured after 6 mins by bagin-sky assay relative to untreated control; assay type: protein-complex assay
# [7] = test system: CCRF-CEM; assay: Cell cycle arrest in human CEM cells assessed as accumulation of cells at sub-G1 phase at 15 uM after 24 hrs by RNase A/propidium iodide staining-based flow cytometric analysis; assay type: functional
# [8] = test system: CCRF-CEM; assay: Induction of apoptosis in human CEM cells assessed as increase in relative activity of caspase-3/7 at 15 uM using AC-DEVD-AMC as substrate after 24 hrs by fluorescence based assay; assay type: functional, cell-based
# [9] = test system: CCRF-CEM; assay: Induction of apoptosis in human CEM cells assessed as PARP-1 cleavage at 15 uM after 24 hrs by Western blot analysis; assay type: functional, cell-based
# [10] = test system: CCRF-CEM; assay: Induction of apoptosis in human CEM cells assessed as caspase-7 fragmentation at 15 uM after 24 hrs by Western blot analysis; assay type: functional, cell-based
# [11] = test system: CCRF-CEM; assay: Induction of apoptosis in human CEM cells assessed as decrease in Mcl-1 expression at 15 uM after 24 hrs by Western blot analysis; assay type: functional, cell-based
# [12] = test system: CCRF-CEM; assay: Cell cycle arrest in human CEM cells assessed as increase in cell population at G0/G1 phase at 15 uM after 24 hrs by RNase A/propidium iodide staining-based flow cytometric analysis; assay type: functional
# [13] = test system: CCRF-CEM; assay: Cell cycle arrest in human CEM cells assessed as reduction in cell population at S phase at 15 uM after 24 hrs by RNase A/propidium iodide staining-based flow cytometric analysis; assay type: functional
# [14] = molecular target: T1, Sodium/potassium-transporting ATPase (Sus scrofa); assay: Inhibition of porcine kidney Na+/K+-ATPase at 50 uM preincubated for 2 mins followed by ATP addition and measured after 6 mins by bagin-sky assay relative to Olean-drigenin; assay type: protein-complex assay
# [15] = test system: Hep 3B2; assay: Antiproliferative activity against human Hep3B cells assessed as reduction in cell viability after 72 hrs by resazurin dye based assay; assay type: functional
# [16] = test system: CCRF-CEM; assay: Effect on cell cycle analysis in human CEM cells at 15 uM after 24 hrs by RNase A/propidium iodide staining-based flow cytometric analysis; assay type: functional
# [17] = test system: CCRF-CEM; assay: Cell cycle arrest in human CEM cells assessed as increase in accumulation of cells in S phase after 24 hrs by RNase A/propidium iodide staining-based flow cytometric analysis; assay type: functional
# [18] = test system: CCRF-CEM; assay: Cell cycle arrest in human CEM cells assessed as increase in accumulation of cells in G2/M phase after 24 hrs by RNase A/propidium iodide staining-based flow cytometric analysis; assay type: functional
# [19] = test system: CCRF-CEM; assay: Cell cycle arrest in human CEM cells assessed as decrease in cell population at G0/G1 phase at 15 uM after 24 hrs by RNase A/propidium iodide staining-based flow cytometric analysis; assay type: functional
# [20] = test system: CCRF-CEM; assay: Induction of apoptosis in human CEM cells assessed as increase in relative activity of caspase-3/7 at 15 uM using AC-DEVD-AMC as substrate after 24 hrs by fluorescence based assay relative to untreated control; assay type: functional
SMILES,IC50 [1] [µM],IC50 [2] [µM],IC50 [3] [µM],IC50 [4] [µM],IC50 [5] [µM],Activity [6] [%],Activity [7],Activity [8],Activity [9],Activity [10],Activity [11],Activity [12],Activity [13],inhibition [14] [%],IC50 [15] [µM],Activity [16],Activity [17],Activity [18],Activity [19],fold change (FC) [20]
CO[C@H]1CC[C@@]2(C)[C@@H](CC[C@@H]3[C@@H]2CC[C@]2(C)[C@@H](C4=CC(=O)OC4)[C@@H](OC(C)=O)[C@H]4O[C@]342)C1,2.5,7.6,11.3,1.7,4.5,25,Active,Active,Active,Active,Active,–,–,–,–,–,–,–,–,–
CO[C@H]1CC[C@@]2(C)[C@@H](CC[C@@H]3[C@@H]2CC[C@]2(C)[C@@H](C4=CC(=O)OC4)[C@@H](O)[C@H]4O[C@]342)C1,> 50,> 50,> 50,> 50,> 50,75,–,–,–,–,–,Active,Active,–,–,–,–,–,–,–
CO[C@H]1C[C@H](O[C@H]2CC[C@@]3(C)[C@H](CC[C@@H]4[C@@H]3CC[C@]3(C)[C@@H](C5=CC(=O)OC5)[C@@H](OC(C)=O)C[C@]43O)C2)O[C@@H](C)[C@@H]1O [OLEANDRIN],0.019,0.033,0.062,–,0.026,49,–,–,–,–,–,–,–,25,–,–,–,–,–,–
CO[C@H]1CC[C@@]2(C)[C@@H](CC[C@@H]3[C@@H]2CC[C@]2(C)[C@@H](C4=CC(=O)OC4)[C@@H](O)C[C@]32O)C1,14.1,> 50,> 50,> 50,> 50,25,Active,inactive,Active,Active,–,–,–,–,–,–,–,–,–,–
CO[C@H]1CC[C@@]2(C)[C@@H](CC[C@@H]3[C@@H]2CC[C@]2(C)[C@@H](c4ccoc4)[C@@H](OC(C)=O)C[C@]32O)C1,> 50,> 50,> 50,> 50,> 50,75,–,–,–,–,–,–,–,–,> 50,inactive,–,–,–,–
CO[C@H]1CC[C@@]2(C)[C@@H](CC[C@@H]3[C@@H]2CC[C@]2(C)[C@@H](C4=CC(=O)OC4)[C@@H](OC(C)=O)C[C@]32O)C1,5.8,21.1,14.8,5.9,7.9,24,Active,Active,Active,Active,–,–,–,–,7.7,–,Dose-dependent effect,Dose-dependent effect,Active,–
CC(=O)O[C@H]1C[C@]2(O)[C@@H]3CC[C@@H]4C[C@@H](O)CC[C@]4(C)[C@H]3CC[C@]2(C)[C@H]1C1=CC(=O)OC1,0.2,0.8,0.2,–,0.1,75,–,–,–,–,–,–,–,–,–,–,–,–,–,–
CO[C@H]1CC[C@@]2(C)[C@@H](CC[C@@H]3[C@@H]2CC[C@]2(C)[C@@H](c4ccoc4)[C@@H](O)[C@H]4O[C@]342)C1,36.4,50,11.9,18.4,> 50,101,–,–,–,–,–,–,–,–,27.2,–,–,–,–,–
CO[C@H]1CC[C@@]2(C)[C@@H](CC[C@@H]3[C@@H]2CC[C@]2(C)[C@@H](C4=CC(=O)OC4)[C@@H](OC(C)=O)[C@@H]4O[C@@]342)C1,1.3,4.4,17.5,4.9,5.7,104,Active,–,Active,Active,Active,–,–,–,> 50,–,–,–,–,<=19
